Bounds are passed on as bounds.

Usually IC50 stands for the point on the concentration scale where inhibition reaches its midpoint. The low end stands for greater potency in that assay, the high end for weaker potency in that assay.

The target of this test is T1, Syk (Homo sapiens, UniProt P43405).
T1 construct: Purified Syk catalytic domain (aa 356-635 with a C-terminal His-tag purified in-house); His-tag (C); made in house
As to the kind of experiment: In vitro Syk kinase activity measured by trFRET. It counts as biochemical. The following applies: Syk catalytic domain, 0.001 mM ATP. Here is the method: In Vitro Syk Kinase Activity Measured by Time-Resolved Fluorescence Resonance Energy Transfer (trFRET)
After about 60 min incubation at rt, the reaction was quenched by addition of EDTA (final concentration: 100 mM) and developed by addition of revelation reagents (final approximate concentrations: 30 mM HEPES pH 7.0, 0.06% BSA, 0.006% Tween-20, 0.24 M KF, 80 ng/mL PT66K (europium labeled anti-phosphotyrosine antibody cat #61T66KLB Cisbio, Bedford, Mass.) and 0.6 μg/mL SAXL (Phycolink streptavidin-allophycocyanin acceptor, cat #PJ25S, Prozyme, San Leandro, Calif.). The developed reaction was incubated in the dark either at about 4° C. for about 14 h or for about 60 min at rt, then read via a time-resolved fluorescence detector (Rubystar, BMG) using a 337 nm laser for excitation and monitoring emission wavelengths at 665 nm. Within the linear range of the assay, the observed signal at 665 nm was directly related to phosphorylated product and can be used to calculate the IC50 values.

In the case of `COCCOc1ccc(-c2nc([C@H]3C[C@@H](O)CN3C(C)=O)n3c2cnc2[nH]ccc23)cc1` [F.1.21, 1-((2R,4R)-4-hydroxy-2-(3-(4-(2-methoxyethoxy)phenyl)-6H-imidazo[1,5-a]pyrrolo[2,3-e]pyrazin-1-yl)pyrrolidin-1-yl)ethanone], the IC50 was 10 to 30 nM.
On to `CC(=O)N1C[C@H](O)C[C@@H]1c1nc(-c2ccc(NC(C)C)cc2)c2cnc3[nH]ccc3n12` [Example #10, 1-((2R,4R)-4-Hydroxy-2-(3-(4-(isopropylamino)phenyl)-6H-imidazo[1,5-a]pyrrolo[2,3-e]pyrazin-1-yl)pyrrolidin-1-yl)ethanone], for which the half-maximal inhibitory concentration (IC50) lay within 10 to 30 nM.
The molecule `COc1ccc(-c2nc([C@H]3C[C@@H](O)CN3C(C)=O)n3c2cnc2[nH]ccc23)cc1OC` [F.1.20, 1-((2R,4R)-2-(3-(3,4-dimethoxyphenyl)-6H-imidazo[1,5-a]pyrrolo[2,3-e]pyrazin-1-yl)-4-hydroxypyrrolidin-1-yl)ethanone] displayed an IC50 of less than 10 nM.
For the molecule `CC(=O)N1C[C@H](O)C[C@@H]1c1nc(-c2ccc(C(C)(C)C#N)cc2)c2cnc3[nH]ccc3n12` [F.1.16, 2-(4-(1-((2R,4R)-1-acetyl-4-hydroxypyrrolidin-2-yl)-6H-imidazo[1,5-a]pyrrolo[2,3-e]pyrazin-3-yl)phenyl)-2-methylpropanenitrile], the IC50 is less than 10 nM.
The molecule `CC(=O)N1C[C@H](O)C[C@@H]1c1nc(-c2ccc(N3CCCCC3)cc2)c2cnc3[nH]ccc3n12` [F.1.1.13, 1-((2R,4R)-4-hydroxy-2-(3-(4-(piperidin-1-yl)phenyl)-6H-imidazo[1,5-a]pyrrolo[2,3-e]pyrazin-1-yl)pyrrolidin-1-yl)ethanone] gave an IC50 of less than 10 nM.
Next, `COCCOc1ccc(-c2nc([C@H]3C[C@@H](O)CN3C(=O)CF)n3c2cnc2[nH]ccc23)cc1` [E.1.2, 2-fluoro-1-((2R,4R)-4-hydroxy-2-(3-(4-(2-methoxyethoxy)phenyl)-6H-imidazo[1,5-a]pyrrolo[2,3-e]pyrazin-1-yl)pyrrolidin-1-yl)ethanone]: 10 to 30 nM.
Next, `CC(=O)N1C[C@H](O)C[C@@H]1c1nc(-c2ccc(NC(C)C)cc2)c2cnc3[nH]cc(C)c3n12` [Example #11, 1-((2R,4R)-4-Hydroxy-2-(3-(4-(isopropylamino)phenyl)-8-methyl-6H-imidazo[1,5-a]pyrrolo[2,3-e]pyrazin-1-yl)pyrrolidin-1-yl)ethanone]: 30 to 100 nM.
Next, `COc1ccc(-c2nc([C@H]3C[C@@H](O)CN3C(=O)CF)n3c2cnc2[nH]ccc23)cc1` [E.1.1]: 10 to 30 nM.
`CC(=O)N1C[C@H](O)C[C@@H]1c1nc(-c2ccc(C3(O)CCC3)cc2)c2cnc3[nH]ccc3n12` [F.1.27, 1-((2R,4R)-4-hydroxy-2-(3-(4-(1-hydroxycyclobutyl)phenyl)-6H-imidazo[1,5-a]pyrrolo[2,3-e]pyrazin-1-yl)pyrrolidin-1-yl)ethanone] returned an IC50 of 10 to 30 nM.
Next, `CO[C@@H](C)c1ccc(-c2nc([C@H]3C[C@@H](O)CN3C(C)=O)n3c2cnc2[nH]ccc23)cc1` [F.1.3, 1-((2R,4R)-4-hydroxy-2-(3-(4-((S)-1-methoxyethyl)phenyl)-6H-imidazo[1,5-a]pyrrolo[2,3-e]pyrazin-1-yl)pyrrolidin-1-yl)ethanone]: less than 10 nM; `COc1ccc(-c2nc([C@H]3C[C@@H](O)CN3C(C)=O)n3c2cnc2[nH]ccc23)s1` [Example #3, 1-((2R,4R)-4-Hydroxy-2-(3-(5-methoxythiophen-2-yl)-6H-imidazo[1,5-a]pyrrolo[2,3-e]pyrazin-1-yl)pyrrolidin-1-yl)ethanone]: 10 to 30 nM; `CC(=O)N1C[C@H](O)C[C@@H]1c1nc(-c2ccc(C(C)(C)O)cc2)c2cnc3[nH]ccc3n12` [F.1.15, 1-((2R,4R)-4-hydroxy-2-(3-(4-(2-hydroxypropan-2-yl)phenyl)-6H-imidazo[1,5-a]pyrrolo[2,3-e]pyrazin-1-yl)pyrrolidin-1-yl)ethanone]: less than 10 nM.
`CC(=O)N1C[C@H](O)C[C@@H]1c1nc(-c2ccc(C3CCOCC3)cc2)c2cnc3[nH]ccc3n12` [F.1.18, 1-((2R,4R)-4-hydroxy-2-(3-(4-(tetrahydro-2H-pyran-4-yl)phenyl)-6H-imidazo[1,5-a]pyrrolo[2,3-e]pyrazin-1-yl)pyrrolidin-1-yl)ethanone] gave an IC50 of less than 10 nM.
`CC(=O)N1C[C@H](O)C[C@@H]1c1nc(-c2ccc(OCC3(C)COC3)cc2)c2cnc3[nH]ccc3n12` [D.1.1, 1-((2R,4R)-4-hydroxy-2-(3-(4-((3-methyloxetan-3-yl)methoxy)phenyl)-6H-imidazo[1,5-a]pyrrolo[2,3-e]pyrazin-1-yl)pyrrolidin-1-yl)ethanone] gave an IC50 of 10 to 30 nM.
Next, `CC(=O)N1C[C@H](O)C[C@@H]1c1nc(-c2ccc(C(F)(F)F)cc2)c2cnc3[nH]ccc3n12` [Example #A.1.4, 1-((2R,4R)-4-hydroxy-2-(3-(4-(trifluoromethyl)phenyl)-6H-imidazo[1,5-a]pyrrolo[2,3-e]pyrazin-1-yl)pyrrolidin-1-yl)ethanone]: 30 to 100 nM.
`CC(=O)N1C[C@H](O)C[C@@H]1c1nc(-c2ccc(OCCN3CCOCC3)cc2)c2cnc3[nH]ccc3n12` [F.1.12, 1-((2R,4R)-4-hydroxy-2-(3-(4-(2-morpholinoethoxy)phenyl)-6H-imidazo[1,5-a]pyrrolo[2,3-e]pyrazin-1-yl)pyrrolidin-1-yl)ethanone]: the half-inhibitory concentration (IC50) lay in the range of 10 to 30 nM.
`CC(=O)N1C[C@H](O)C[C@@H]1c1nc(-c2ccc(N3CCO[C@@H](C)C3)cc2)c2cnc3[nH]ccc3n12` [Example #5 (S), 1-((2R,4R)-4-Hydroxy-2-(3-(4-((S)-2-methylmorpholino)phenyl)-6H-imidazo[1,5-a]pyrrolo[2,3-e]pyrazin-1-yl)pyrrolidin-1-yl)ethanone] displayed a 50% inhibitory concentration (IC50) of less than 10 nM.
Turning to `CC(=O)N1C[C@H](O)C[C@@H]1c1nc(-c2ccc(C(C)(C)O)c(F)c2)c2cnc3[nH]ccc3n12` [F.1.5, 1-((2R,4R)-2-(3-(3-fluoro-4-(2-hydroxypropan-2-yl)phenyl)-6H-imidazo[1,5-a]pyrrolo[2,3-e]pyrazin-1-yl)-4-hydroxypyrrolidin-1-yl)ethanone], the IC50 is 10 to 30 nM.
For the molecule `CC(=O)N1C[C@H](O)C[C@@H]1c1nc(-c2ccc(C(=O)N3CCC(F)(F)CC3)cc2)c2cnc3[nH]ccc3n12` [F.1.1, 1-((2R,4R)-2-(3-(4-(4,4-difluoropiperidine-1-carbonyl)phenyl)-6H-imidazo[1,5-a]pyrrolo[2,3-e]pyrazin-1-yl)-4-hydroxypyrrolidin-1-yl)ethanone], the IC50 is greater than 100 nM.
`CC(=O)N1C[C@H](O)C[C@@H]1c1nc(-c2ccc(N3CCOCC3)cc2)c2cnc3[nH]cc(Cl)c3n12` [F.1.10, 1-((2R,4R)-2-(8-chloro-3-(4-morpholinophenyl)-6H-imidazo[1,5-a]pyrrolo[2,3-e]pyrazin-1-yl)-4-hydroxypyrrolidin-1-yl)ethanone]: the 50% inhibitory concentration (IC50) is less than 10 nM.
As for `CCOc1ccc(-c2nc([C@H]3C[C@@H](O)CN3C(C)=O)n3c2cnc2[nH]cc(Cl)c23)cc1` [F.1.11, 1-((2R,4R)-2-(8-chloro-3-(4-ethoxyphenyl)-6H-imidazo[1,5-a]pyrrolo[2,3-e]pyrazin-1-yl)-4-hydroxypyrrolidin-1-yl)ethanone], the IC50 was 10 to 30 nM.
For the molecule `CC(=O)N1C[C@H](O)C[C@@H]1c1nc(-c2ccc(O[C@H](C)C3CC3)cc2)c2cnc3[nH]ccc3n12` (single isomer, unassigned) [Example #2], the IC50 was 30 to 100 nM.

These data come from patent publication US20140315883A1, “6H-IMIDAZO[1,5-a]PYRROLO[2,3-e]PYRAZINE COMPOUNDS” (ABBVIE INC., priority 2013, published 2014).
